Assay results taken from paper PMC2866172 (Journal of medicinal chemistry, 2010).

Experiments:
[1] = Brain PET imaging in anesthetized baboons
[2] = Torso PET imaging in anesthetized baboons; settings: for Calculated drug concentration in heart / Calculated drug concentration in kidney cortex / Calculated drug concentration in kidney medulla / Calculated drug concentration in liver / Calculated drug concentration in lung / Calculated drug concentration in plasma: calculated assuming 5 mg/kg dose, 17 kg baboon; for Concentration in heart / Concentration in kidney cortex / Concentration in kidney medulla / Concentration in liver / Concentration in lung / Concentration in plasma: baboon, i.v.

## NN[11C](=O)c1ccncc1 [[^11C]INH]
[1]; 30 min, estimated from baboon weight, 5 mg/kg dose, signal assumed intact drug
  Estimated concentration in whole brain, C30min: 2.54 µg/mL
[1]; 60 min, estimated from baboon weight, 5 mg/kg dose, signal assumed intact drug
  Estimated concentration in whole brain, C60min: 2.11 µg/mL
[1]; 90 min, estimated from baboon weight, 5 mg/kg dose, signal assumed intact drug
  Estimated concentration in whole brain, C90min: 1.75 µg/mL
[1]; baboon, i.v., 30 min
  Concentration in whole brain, C30min: 0.00299 %ID/cc
[1]; baboon, i.v., 60 min
  Concentration in whole brain, C60min: 0.00248 %ID/cc
[1]; baboon, i.v., 90 min
  Concentration in whole brain, C90min: 0.00206 %ID/cc
[1]; healthy baboons, i.v., TAC, AUC and image
  Blood-brain barrier penetration: higher initial brain penetration and tissue accumulation when compared to RIF
[2]; 15 min
  Calculated drug concentration in heart: (8.72) µg/ml
  Calculated drug concentration in kidney cortex: (15.06) µg/ml
  Calculated drug concentration in kidney medulla: (18.94) µg/ml
  Calculated drug concentration in liver: (12.50) µg/ml
  Calculated drug concentration in lung: (7.72) µg/ml
  Calculated drug concentration in plasma: (3.76) µg/ml
[2]; 30 min
  Calculated drug concentration in heart: (6.13) µg/ml
  Calculated drug concentration in kidney cortex: (9.26) µg/ml
  Calculated drug concentration in kidney medulla: (15.43) µg/ml
  Calculated drug concentration in liver: (9.71) µg/ml
  Calculated drug concentration in lung: (6.09) µg/ml
  Calculated drug concentration in plasma: (2.96) µg/ml
[2]; 60 min
  Calculated drug concentration in heart: (3.74) µg/ml
  Calculated drug concentration in kidney cortex: (7.72) µg/ml
  Calculated drug concentration in kidney medulla: (16.37) µg/ml
  Calculated drug concentration in liver: (7.64) µg/ml
  Calculated drug concentration in lung: (4.42) µg/ml
  Calculated drug concentration in plasma: (2.05) µg/ml
[2]; 90 min
  Calculated drug concentration in heart: (4.15) µg/ml
  Calculated drug concentration in kidney cortex: (8.54) µg/ml
  Calculated drug concentration in kidney medulla: (14.69) µg/ml
  Calculated drug concentration in liver: (6.91) µg/ml
  Calculated drug concentration in lung: (4.19) µg/ml
  Calculated drug concentration in plasma: (1.62) µg/ml
[2]; 15 min after administration
  Concentration in heart: 0.0103 %ID/cc
  Concentration in kidney cortex: 0.0177 %ID/cc
  Concentration in kidney medulla: 0.0223 %ID/cc
  Concentration in liver: 0.0147 %ID/cc
  Concentration in lung: 0.0091 %ID/cc
  Concentration in plasma: 0.00442 %ID/cc
[2]; 30 min after administration
  Concentration in heart: 0.0072 %ID/cc
  Concentration in kidney cortex: 0.0109 %ID/cc
  Concentration in kidney medulla: 0.0181 %ID/cc
  Concentration in liver: 0.0114 %ID/cc
  Concentration in lung: 0.0072 %ID/cc
  Concentration in plasma: 0.00348 %ID/cc
[2]; 60 min after administration
  Concentration in heart: 0.0044 %ID/cc
  Concentration in kidney cortex: 0.0091 %ID/cc
  Concentration in kidney medulla: 0.0193 %ID/cc
  Concentration in liver: 0.0090 %ID/cc
  Concentration in lung: 0.0052 %ID/cc
  Concentration in plasma: 0.00241 %ID/cc
[2]; 90 min after administration
  Concentration in heart: 0.0049 %ID/cc
  Concentration in kidney cortex: 0.0100 %ID/cc
  Concentration in kidney medulla: 0.0173 %ID/cc
  Concentration in liver: 0.0081 %ID/cc
  Concentration in lung: 0.0049 %ID/cc
  Concentration in plasma: 0.0019 %ID/cc
